{"source": "paper PMC8398847", "about": "“Isavuconazole: Thermodynamic Evaluation of Processes Sublimation, Dissolution and Partition in Pharmaceutically Relevant Media” (Molecules, 2021)", "key": {"[1]": {"experiment": "Solubility by isothermal saturation (shake flask) method", "format": "physicochemical", "method": "Solubility of drug was measured by the classical shake flask method at five temperatures: 293, 298, 303, 308 and 313 ± 0.2 K. This method determines the concentration of a test substance in a saturated solution, i.e., in equilibrium with the solid phase at a strictly fixed temperature. The compound studied and the selected solvent were placed into glass ampoules and stirred in an air thermostat.\nThe solid phase was sedimentated after stirring within 2 h. Then, the solutions were centrifuged using a thermostatic centrifuge Biofuge Stratos (Thermo scientific, Germany) at the appropriate temperature of the experiment for 5 min. The solid phase was removed by filtration using a filter MILLEX®HA 0.22 μm (Millipore, Ireland). The resulting solution, if necessary, was diluted with an appropriate solvent and examined on a Carry 50 spectrophotometer (Varian, Palo Alto, CA, USA, Software Version 3.00 (339)) in the ultraviolet region of the spectrum (operating wavelength range λ = 200–400 nm) with an accuracy of 2–4%.\nThe experimental value of solubility is an average value of three independent experiments. The absorption maximums for isavuconazole in the selected solvents have been determined at 274 nm in buffers solutions (Figure 4) and as 283 nm in hexane and alcohols (Figure S8). The calibration was carried out at room temperature using the solutions with known concentrations of drug in selected solvents.\nThe mole fraction concentration was calculated based on molarity (S, mol·L^−1) using Equation (8):(8) x=M2S/S(M2−M1)+1000ρ, where M1 and M2 are the molar masses of […], respectively, and ρ (g·cm^−3) is the density of the pure solvents. Densities of buffers solutions (pH 1.2, 2.0 and 7.4) were measured using densitometer DMA 4500 (Anton Paar, Austria) and published earlier. The values of densities using for conversion are given in Table S4 (Supporting Information)."}, "[2]": {"experiment": "Vapor pressure by transpiration (inert gas-carrier transfer) method; sublimation thermodynamic functions", "format": "physicochemical", "conditions": "for lnp: p in Pa", "method": "The thermodynamic functions of sublimation were calculated as the fitting coefficients of the Clarke and Glew equation [17]:(1) Rlnp/p^0=ΔcrgGm°(θ)/θ+ΔcrgHm°(θ)(1/θ−1/T)+ΔcrgCp,m°(θ)(θ/T−1+lnT/θ) where ΔcrgHm°(θ) is the standard molar sublimation enthalpy, ΔcrgGm°(θ) is the standard molar Gibbs energy of sublimation, and ΔcrgCp,m°(θ) is the difference between the constant pressure standard molar heat capacity Cp,m°(g) of the gaseous compound and the constant pressure standard molar heat capacity Cp,m°(cr) of the crystalline compound. The value is the arbitrary reference temperature θ = 298.15 K; p^0 = 10^5 Pa is the reference pressure.\nThe transpiration method was used for the sublimation experiment. A stream of an inert gas (nitrogen) was passed over a sample at the constant temperature and flow rate; saturation of the gas with the substance vapor was achieved by low transpiration rate of gas. Then, the sublimated quantity of condensed vapor was determined. The volume of the inert gas and the amount of the sublimated material were used for calculation the vapor pressure over the sample of compound at this temperature. The following procedure was used for determination the amount of sublimed substance. The condensed sample was dissolved in a known volume of solvent Vsol. The mass of the substance was determined by the measurement of absorbance A of its solution (spectrophotometer Cary-50, Varian, Palo Alto, CA, USA, Software Version 3.00 (339)). According to the Lambert–Beer law the concentration of the solution c (mol·L^−1) can express knowing a value of the extinction coefficient ε (l·mol^−1·cm^−1) of the studied compound dissolved in the solvent and an absorbing path length (l):A = εcl(5) where l is an absorbing path length. Calculation the mass of sublimed compound was performed according to the equation:m = cVsolM(6)\nM is the molar mass of the studied substance.\nThe vapor pressure p at each temperature was determined from the amount of the substance collected within a known time:p = mRTa/VM(7) where V is the volume of the gaseous nitrogen evaluated from the time measurement and the flow rate at the flow meter temperature Ta and the atmospheric pressure. Uncertainties for transpiration experiment parameters (T, m, Ta, V) are reported as standard deviations (Table 1). The combined standard uncertainty of vapor pressure measurements were estimated taking into account uncertainties of all variables involved in eq 7.\nThe details of equipment and experimental procedure are given in [33]. The sublimation technique was tested with benzoic acid as standard. The experimental vapor pressure values were obtained in the temperature interval of (307–385) K and were in good agreement with the results of studies within the limits of experimental error (Figure S7). The standard sublimation enthalpy of benzoic acid measured by us was 90.5 ± 0.3 kJ·mol^−1 and consistent with recommended by IUPAC value—89.7 ± 0.5 kJ·mol^−1 [38]. Each experiment at fixed temperature was repeated three times with the standard deviation of up to 5%."}, "[3]": {"conditions": "298.15 K, experimental, Clarke and Glew equation"}}, "note": "Where “and” joins values, the source holds several entries; their conditions need not be identical. Identical values can stand only once. Like-named read-outs stand apart in the source and are kept apart here."}
{"molecule": "C[C@@H](c1nc(-c2ccc(C#N)cc2)cs1)[C@](O)(Cn1cncn1)c1cc(F)ccc1F", "note": "[IVZ, Isavuconazole]", "values": [{"measurement": "solubility", "setting": "[1]; aqueous buffer solutions, pH 7.4, buffers pH 7.4, 2.0, 1.2, 298.15 K, read-out: solubility in aqueous buffer solutions", "value": "8.13 to 42.4", "unit": "µM"}, {"measurement": "solubility", "setting": "[1]; buffer pH 7.4, pH 7.4, aqueous buffer, thermodynamic from solid, buffer pH 7.4, 293.15 K, read-out: solubility S·10^6", "value": 6.67, "unit": "µM"}, {"measurement": "solubility", "setting": "[1]; buffer pH 7.4, pH 7.4, aqueous buffer, thermodynamic from solid, buffer pH 7.4, 298.15 K, read-out: solubility S·10^6", "value": 8.13, "unit": "µM"}, {"measurement": "solubility", "setting": "[1]; buffer pH 7.4, pH 7.4, aqueous buffer, thermodynamic from solid, buffer pH 7.4, 303.15 K, read-out: solubility S·10^6", "value": 10, "unit": "µM"}, {"measurement": "solubility", "setting": "[1]; buffer pH 7.4, pH 7.4, aqueous buffer, thermodynamic from solid, buffer pH 7.4, 308.15 K, read-out: solubility S·10^6", "value": 12.2, "unit": "µM"}, {"measurement": "solubility", "setting": "[1]; buffer pH 7.4, pH 7.4, aqueous buffer, thermodynamic from solid, buffer pH 7.4, 313.15 K, read-out: solubility S·10^6", "value": 14.5, "unit": "µM"}, {"measurement": "solubility in buffer pH 7.4 lower than in pH 1.2", "setting": "[1]; buffer pH 7.4 vs pH 1.2", "value": 80, "unit": "%"}, {"measurement": "solubility of uncharged forms in buffer pH 7.4 relative to ionized forms in buffer pH 1.2", "setting": "[1]; buffer pH 7.4 vs pH 1.2", "value": "five times lower"}, {"measurement": "solubility", "setting": "[1]; ethanol, 298.15 K, read-out: solubility", "value": 180000, "unit": "µM"}, {"measurement": "solubility", "setting": "[1]; hexane, organic solvent or mixture, thermodynamic from solid, hexane, 293.15 K, read-out: solubility S·10^4", "value": 423, "unit": "µM"}, {"measurement": "solubility", "setting": "[1]; hexane, organic solvent or mixture, thermodynamic from solid, hexane, 298.15 K, read-out: solubility S·10^4", "value": 537, "unit": "µM"}, {"measurement": "solubility", "setting": "[1]; hexane, organic solvent or mixture, thermodynamic from solid, hexane, 303.15 K, read-out: solubility S·10^4", "value": 677, "unit": "µM"}, {"measurement": "solubility", "setting": "[1]; hexane, organic solvent or mixture, thermodynamic from solid, hexane, 308.15 K, read-out: solubility S·10^4", "value": 847, "unit": "µM"}, {"measurement": "solubility", "setting": "[1]; hexane, organic solvent or mixture, thermodynamic from solid, hexane, 313.15 K, read-out: solubility S·10^4", "value": 1050, "unit": "µM"}, {"measurement": "solubility", "setting": "[1]; seven solvents (buffers pH 1.2, 2.0, 7.4; hexane; alcohols), seven solvents, 293.15 to 313.15 K, read-out: solubility, span over solvents", "value": "6.7 to 300000", "unit": "µM"}, {"measurement": "standard molar Gibbs energy of sublimation ΔcrgGm°(298.15 K)", "setting": "[2]; [3]", "value": "16.5 ± 0.048", "unit": "kcal/mol"}, {"measurement": "standard molar enthalpy of sublimation ΔcrgHm°(298.15 K)", "setting": "[2]; [3]", "value": "33.01 kcal/mol and 33.01 ± 0.12 kcal/mol"}, {"measurement": "standard molar Gibbs energy of sublimation ΔcrgGm°(298.15 K)", "setting": "[2]; 298.15 K, experimental, Clarke and Glew equation, listed as Isavuconazole", "value": 16.5, "unit": "kcal/mol"}, {"measurement": "vapor pressure 10^3 p", "setting": "[2]; 365.15 K", "value": 1.95, "unit": "Pa"}, {"measurement": "saturated vapor pressure values", "setting": "[2]; 365.15–383.15 K", "value": "0.001–0.01 Pa"}, {"measurement": "vapor pressure 10^3 p", "setting": "[2]; 367.15 K", "value": 2.50, "unit": "Pa"}, {"measurement": "vapor pressure 10^3 p", "setting": "[2]; 369.15 K", "value": 3.19, "unit": "Pa"}, {"measurement": "vapor pressure 10^3 p", "setting": "[2]; 371.15 K", "value": 4.02, "unit": "Pa"}, {"measurement": "vapor pressure 10^3 p", "setting": "[2]; 372.15 K", "value": 4.55, "unit": "Pa"}, {"measurement": "vapor pressure 10^3 p", "setting": "[2]; 373.15 K", "value": 5.11, "unit": "Pa"}, {"measurement": "vapor pressure 10^3 p", "setting": "[2]; 374.15 K", "value": 5.72, "unit": "Pa"}, {"measurement": "vapor pressure 10^3 p", "setting": "[2]; 376.15 K", "value": 7.22, "unit": "Pa"}, {"measurement": "vapor pressure 10^3 p", "setting": "[2]; 378.15 K", "value": 8.83, "unit": "Pa"}, {"measurement": "vapor pressure 10^3 p", "setting": "[2]; 379.15 K", "value": 9.83, "unit": "Pa"}, {"measurement": "vapor pressure 10^3 p", "setting": "[2]; 380.15 K", "value": 11.19, "unit": "Pa"}, {"measurement": "vapor pressure 10^3 p", "setting": "[2]; 381.15 K", "value": 12.30, "unit": "Pa"}, {"measurement": "vapor pressure 10^3 p", "setting": "[2]; 382.15 K", "value": 13.79, "unit": "Pa"}, {"measurement": "vapor pressure 10^3 p", "setting": "[2]; 383.15 K", "value": 15.37, "unit": "Pa"}, {"measurement": "lnp", "setting": "[2]; 365.15 K", "value": "−6.241"}, {"measurement": "lnp", "setting": "[2]; 367.15 K", "value": "−5.991"}, {"measurement": "lnp", "setting": "[2]; 369.15 K", "value": "−5.749"}, {"measurement": "lnp", "setting": "[2]; 371.15 K", "value": "−5.515"}, {"measurement": "lnp", "setting": "[2]; 372.15 K", "value": "−5.393"}, {"measurement": "lnp", "setting": "[2]; 373.15 K", "value": "−5.277"}, {"measurement": "lnp", "setting": "[2]; 374.15 K", "value": "−5.163"}, {"measurement": "lnp", "setting": "[2]; 376.15 K", "value": "−4.931"}, {"measurement": "lnp", "setting": "[2]; 378.15 K", "value": "−4.729"}, {"measurement": "lnp", "setting": "[2]; 379.15 K", "value": "−4.622"}, {"measurement": "lnp", "setting": "[2]; 380.15 K", "value": "−4.493"}, {"measurement": "lnp", "setting": "[2]; 381.15 K", "value": "−4.398"}, {"measurement": "lnp", "setting": "[2]; 382.15 K", "value": "−4.283"}, {"measurement": "lnp", "setting": "[2]; 383.15 K", "value": "−4.175"}, {"measurement": "ΔcrgSm°(298.15 K)", "setting": "[2]; sublimation, 298.15 K", "value": "230.4 ± 4.6", "unit": "J·mol^−1·K^−1"}, {"measurement": "ΔcrgCp,m°", "setting": "[2]; sublimation, gas minus crystal heat capacity", "value": "−71.8", "unit": "J·mol^−1·K^−1"}]}
